The results in this text go back to publication PMC8955265, “Systematic Discovery of FBXW7-Binding Phosphodegrons Highlights Mitogen-Activated Protein Kinases as Important Regulators of Intracellular Protein Levels” (International Journal of Molecular Sciences, 2022).

For this assay, the system named is FBXW7. The experiment in a line: Ratiometric EGFP/DsRed protein degradation assay with degron probes. The class given is cell-based, human. The conditions noted are these: putative degron motif in EGFP-fused probe with AAKG2 MAPK docking motif; HEK293T, 48 h after transfection, EGFP/DsRed ratio with and without FBXW7 plasmid; search cycles 1-4. The source says:
In order to be able to test putative phosphodegron motifs, a ratiometric protein level monitoring method was adapted to monitor MAPK controlled FBXW7 mediated protein degradation. Briefly, intact DsRed and an EGFP-chimera were expressed in HEK293T cells in equal amounts from an expression plasmid, giving an EGFP/DsRed fluorescence ratio close to one under non-degrading conditions. EGFP was fused to a probe comprised of a putative degron sequence and a known MAPK binding docking motif. EGFP signal is expected to diminish faster than DsRed in cells with more FBXW7 if the probe responded to degradation.
We started out from an intentionally general consensus motif of FBXW7 degrons, inspired by the liberal [TS]P..[TS]P pattern defined for yeast Cdc4 substrates, and scanned the human disordered part of the proteome using SliMSearch4 (the disorder score cut-off was 0.4 and flank length was 5). In all, 22 motifs from this list were subjectively chosen and tested in the ratiometric degradation assay giving only 5 positives (see Supplementary Table S1). Based on the results of this first round, by taking information both from the identified positives and negatives, the consensus motif definition was narrowed to requiring a proline at P + 2, but motifs were allowed to have a phospho-mimicking residue (D or E) at P + 4 because it had been formerly reported that this second phosphorylatable residue may be replaced by aspartate or glutamate. […] In the third round, hydrophobic amino acids were more strictly required at positions −1/−2 and P − 1/2/3 positions were further narrowed and P + 4 position was relaxed based on the identified negatives, which gave a higher hit rate (4 out of 6). This third round gave functional motifs at a good rate, but the used motif definition was very restrictive compared to other known motifs. Finally, in the fourth round, we gave up using an optimal consensus and established the positional relaxation model. […] Hits on this final, most predictive list are presented in Supplementary Table S2. All entries were filtered for motif locations by UniProt annotations, discarding all enzyme-inaccessible (e.g., extracellular) instances. Motifs that had any overlapping PFAM domain indicated were manually assessed using the AlphaFold EBI website. Out of these, only motifs that were highly accessible and located outside of confidently predicted folded domains were kept. We also added kinase consensus compatibility to every motif and the number of experiments where phosphorylation could be detected from PhosphoSitePlus.
The chimera degron module was ordered from IDT as gene Block (gBlock). It consisted of a coiled coil dimerization motif (GCN4: EELLSKNYHLENEVARLKK) to increase sensitivity by allowing multivalent binding, a MAPK binding docking motif (AAKG2: KKNASQKRRSLRVHIPDL), and the CycECO degron motif. The motifs were separated by Gly-Ser-Asn linkers and the gBlock was designed so that the motifs could be easily changed by using unique sets of restriction endonucleases. The gBlock was sub-cloned into the Gateway pENTR4 entry plasmid (Thermo Fisher, Waltham, MA, USA) using restriction enzymes (SalI and NotI). The pENTR4-chimera and the destination plasmid (MSCV-CMV-DsRed-IRES-EGFP-DEST from Addgene; 41941), [28]) were subjected to gateway cloning using LR clonase II enzyme (Invitrogen) to obtain the first DsRed-EGFP-chimera DNA construct containing the cycECO degron. Oligonucleotides corresponding to different degron sequences and docking motifs were ligated into the DsRed-EGFP-chimera DNA construct. The list of all the oligonucleotides used for cloning is provided in Supplementary Table S3. pcDNA3-FLAG-FBXW7α was a kind gift from Michael Pagano (New York University). The FBXW7 arginine mutant (Arg mutant: R465C; R479Q; R505L) was created using two-step PCR and cloned into the pcDNA3-FLAG plasmid. […]
Turning to “KHSNSPPLVTPPQSPVSPQPPA [SMTL2, putative FBXW7 degron motif tested as EGFP-fused degradation probe]”, the Outcome entry is given as “Positive (tested positive, where +FBXW7/control protein level ratio was lower than 1)”.

For “GEAAGSPVPTPPRSPAQEE [Bcl2L12, putative FBXW7 degron motif tested as EGFP-fused degradation probe]”, the Outcome entry is “Negative”.

Turning to “KMSQPGSPSPKTPTPSTPGDTQ [CHD4, putative FBXW7 degron motif tested as EGFP-fused degradation probe]”, the Outcome entry was “Negative”.

Regarding “TANLPPSPPPSPASEQT [MAP2, putative FBXW7 degron motif tested as EGFP-fused degradation probe]”, the Outcome entry is given as “Positive (tested positive, where +FBXW7/control protein level ratio was lower than 1)”.

On to “MVQRLGLISPPASQVSTA [GLIS3, putative FBXW7 degron motif tested as EGFP-fused degradation probe]”, for which the Outcome entry is listed as “Negative”.

For the sequence “KQFLISPPASPPVGWKQV [RCAN1, putative FBXW7 degron motif tested as EGFP-fused degradation probe]”, the Outcome result is “Negative”.

For the sequence “GEGDRGVSPPPSPFFSAI [FRY, putative FBXW7 degron motif tested as EGFP-fused degradation probe]”, the Outcome entry was “Negative”.

Take “VKRTLPSPPPEEAHLP [BSN, putative FBXW7 degron motif tested as EGFP-fused degradation probe]”: the Outcome result is “Negative”.

For the sequence “RPALPATPPATPPAASP [CDT1, putative FBXW7 degron motif tested as EGFP-fused degradation probe]”, the Outcome entry is on record as “Positive (tested positive, where +FBXW7/control protein level ratio was lower than 1)”.

For the sequence “GSDGASPPASPSIIPR [MAP3K10, putative FBXW7 degron motif tested as EGFP-fused degradation probe]”, the Outcome result is listed as “Negative”.

In the case of “IHQAGGSPPASSTSSS [RAPTOR, putative FBXW7 degron motif tested as EGFP-fused degradation probe]”, the Outcome result is “Negative”.

In the case of “APPIPSPPPSPPPSPAPLEP [CAMTA2, putative FBXW7 degron motif tested as EGFP-fused degradation probe]”, the Outcome result is recorded as “Positive (tested positive, where +FBXW7/control protein level ratio was lower than 1)”.

Turning to “EQPSHTPPQTPTPPSTPPLGKQ [ARHGAP17, putative FBXW7 degron motif tested as EGFP-fused degradation probe]”, the Outcome result is on record as “Negative”.

With “DRNVIPDTPPSTPLVPSR [AKAP11-1st, putative FBXW7 degron motif tested as EGFP-fused degradation probe]”, the Outcome entry is on record as “Positive (tested positive, where +FBXW7/control protein level ratio was lower than 1)”.

Turning to “QGYLSPESSPPASPVPACS [CREB5, putative FBXW7 degron motif tested as EGFP-fused degradation probe]”, the Outcome entry was “Negative”.

Turning to “GGHLESPARSLPQRP [FAAP20, putative FBXW7 degron motif tested as EGFP-fused degradation probe]”, the Outcome entry is listed as “Negative”.

Consider “PPLQVPPSPPASPPMSPS [PRR36, putative FBXW7 degron motif tested as EGFP-fused degradation probe]”, for which the Outcome result is “Positive (tested positive, where +FBXW7/control protein level ratio was lower than 1)”.

With “QQAPLTPPNTPDPRSPPNPDNIA [Myozenin2, putative FBXW7 degron motif tested as EGFP-fused degradation probe]”, the Outcome result was “Positive (tested positive, where +FBXW7/control protein level ratio was lower than 1)”.

As for “ELDLMPYTPPQSTPKSA [PBRM1, putative FBXW7 degron motif tested as EGFP-fused degradation probe]”, the Outcome entry is “Negative”.

With “AKEFAPATPPSTPHNSSV [AKAP11-2nd, putative FBXW7 degron motif tested as EGFP-fused degradation probe]”, the Outcome result was “Negative”.

With “VAVSPTPPVSPEVRST [CEP164, putative FBXW7 degron motif tested as EGFP-fused degradation probe]”, the Outcome result is “Negative”.

With “QGQKVGSLTPPSSPKTQRA [AAK1, putative FBXW7 degron motif tested as EGFP-fused degradation probe]”, the Outcome entry is on record as “Negative”.

As for “LGPVHPTPPPSSPQEP [KMT2D-a, putative FBXW7 degron motif tested as EGFP-fused degradation probe]”, the Outcome result is recorded as “Negative”.

Regarding “SPFHGSSPPQSTPLSPPPLTPK [DOCK5, putative FBXW7 degron motif tested as EGFP-fused degradation probe]”, the Outcome result is on record as “Negative”.

For the sequence “SRNHSPSPPVTPTGAA [NHSL1, putative FBXW7 degron motif tested as EGFP-fused degradation probe]”, the Outcome result is listed as “Negative”.

“DLLAALPTPPHNQTEDV [KMT2D-3rd, putative FBXW7 degron motif tested as EGFP-fused degradation probe]”: the Outcome result is listed as “Positive (tested positive, where +FBXW7/control protein level ratio was lower than 1)”.

In the case of “SPGDSPPGTPPASPPSSAWQ [TBC1D4, putative FBXW7 degron motif tested as EGFP-fused degradation probe]”, the Outcome result is on record as “Negative”.

For “STKRKPRVSPPASPTLEVE [SH3RF1, putative FBXW7 degron motif tested as EGFP-fused degradation probe]”, the Outcome result is listed as “Negative”.

As to “PLGPPATPPGSPPCSLL [PKMYT1, putative FBXW7 degron motif tested as EGFP-fused degradation probe]”, the Outcome entry was “Negative”.

As to “AIRQSPSPPPEESRG [PDE4A, putative FBXW7 degron motif tested as EGFP-fused degradation probe]”, the Outcome result is given as “Negative”.

“SDLDKTPPPSPPPEED [CHD7, putative FBXW7 degron motif tested as EGFP-fused degradation probe]”: the Outcome entry was “Negative”.

On to “PSFPPTPPTPPASPPHTPV [EIF4G3, putative FBXW7 degron motif tested as EGFP-fused degradation probe]”, for which the Outcome entry is “Positive (tested positive, where +FBXW7/control protein level ratio was lower than 1)”.

As to “TCPNSPSTPPSTPSPRV [SOS2, putative FBXW7 degron motif tested as EGFP-fused degradation probe]”, the Outcome entry is “Negative”.

For the sequence “PRPPRPPSPPPEPETTD [SETD1B, putative FBXW7 degron motif tested as EGFP-fused degradation probe]”, the Outcome result is recorded as “Negative”.

Consider “GQAATPETPQPSPPGGSGS [HNF4, putative FBXW7 degron motif tested as EGFP-fused degradation probe]”, for which the Outcome result is given as “Negative”.

In the case of “AVRTPPRTPNIV [KSR2-a, putative FBXW7 degron motif tested as EGFP-fused degradation probe]”, the Outcome result is on record as “Negative”.

As to “FSYQESPPRSPRRMSFSG [AAKG2, putative FBXW7 degron motif tested as EGFP-fused degradation probe]”, the Outcome entry is given as “Negative”.

Consider “ASPTPPSPPPPPSPPASPSLPP [PP1R37, putative FBXW7 degron motif tested as EGFP-fused degradation probe]”, for which the Outcome entry is listed as “Negative”.
